Test results taken from paper PMC8605905 (Oxidative Medicine and Cellular Longevity, 2021).

Key:
[1] = test system: ∆K280 tauRD-DsRed SH-SY5Y cells; assay: High content analysis of ΔK280 tauRD-DsRed fluorescence; format: cell-based, Human; conditions: tested 2.5–10 μM
Experimental: Human 293-derived Flp-In-293 cells (Invitrogen, Madison, WI, USA) were cultivated in Dulbecco's modified Eagle's medium (DMEM) containing 10% foetal bovine serum (FBS) (Thermo Fisher Scientific). Human neuroblastoma SH-SY5Y-derived Aβ-GFP [23] and ∆K280 tauRD-DsRed cells were kept in DMEM/nutrient mixture F12 (DMEM/F12) containing 10% FBS, 5 μg/ml blasticidin, and 100 μg/ml hygromycin (InvivoGen, San Diego, CA, USA). Doxycycline (Sigma-Aldrich) was applied to induce the expression of Aβ-GFP (5 μg/ml doxycycline) or ∆K280 tauRD-DsRed (2 μg/ml doxycycline).
(§1) On day 1, Aβ-GFP or ∆K280 tauRD-DsRed SH-SY5Y cells were seeded into 96-well plates (2.5 × 10^4/well) and treated with retinoic acid (10 μM; Sigma-Aldrich) to prompt neuronal differentiation. […] On day 8, cells were stained with Hoechst 33342 (0.1 μg/ml; Sigma-Aldrich) for 30 min, and cell images were automatically captured at excitation/emission wavelengths of 482/[…] (GFP fluorescence) or 543/593 nm (DsRed fluorescence) using a high content analysis (HCA) system (Micro Confocal High-Content Imaging System). Image Acquisition and Analysis Software (MetaXpress) (Molecular Devices, Sunnyvale, CA, USA) was used to analyse the images. CellROX Orange (5 μM; Molecular Probes, Eugene, OR, USA) (for Aβ-GFP cells) or dichloro-dihydro-fluorescein diacetate (DCFH-DA, 10 μM; Invitrogen) (for ∆K280 tauRD-DsRed cells) was added to the cells and incubated at 37°C for 30 min. The HCA system was used to measure intracellular ROS at 531/593 nm (CellROX Orange fluorescence) or 482/536 nm (DCFH-DA fluorescence) of excitation/emission wavelengths.

[2] = test system: CRE-GFP 293 cells; assay: CRE-GFP 293 reporter cell assay (flow cytometry); format: cell-based, Human; conditions: 5–10 μM, 5 h, in the presence or absence of Ca2+ ionophore (2 μM)
[3] = test system: ∆K280 tauRD-DsRed SH-SY5Y cells; assay: ROS assay (DCFH-DA) in ΔK280 tauRD-DsRed cells; format: cell-based, Human; conditions: 10 μM
Experimental: as §1

[4] = target: T1, ΔK280 tauRD protein (Homo sapiens, UniProt P10636, DEL597-597); assay: Thioflavin T assay of ΔK280 tauRD aggregation; format: biochemical; conditions: ΔK280 tauRD 20 μM, compound 1–10 μM, 37°C 48 h; read-out: ΔK280 tauRD aggregation inhibition EC50 (Thioflavin T)
T1 construct: E. coli-derived ΔK280 tauRD protein; made in house; host or cells: E. coli
T1 sequence (P10636 with tags, fused parts or gaps DEL597-597): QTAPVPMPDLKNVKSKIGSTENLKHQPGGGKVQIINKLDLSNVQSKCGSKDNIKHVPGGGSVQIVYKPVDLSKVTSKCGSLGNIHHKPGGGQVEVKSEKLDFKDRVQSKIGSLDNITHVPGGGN
Experimental: The potential of Congo red and coumarin-chalcone derivatives in inhibiting tau misfolding was assessed using the E. coli-derived ΔK280 tauRD protein [21]. In brief, ΔK280 tauRD protein (20 μM) was incubated with the tested compound (1−10 μM) in buffer (150 mM NaCl, 20 mM Tris-HCl (pH 8.0)) at 37°C for 48 h to form aggregates. Thioflavin T (5 μM) was then added, and the mixture was incubated at room temperature for 25 min. The fluorescence intensity of the samples was measured, and the EC50 was computed as described.

In the case of `CN(C)c1ccc(/C=C/C(=O)c2c(O)c3ccccc3oc2=O)cc1` [LM-021, (E)-3-(3-(4-(dimethylamino)phenyl)acryloyl)-4-hydroxy-2H-chromen-2-one], the EC50 ([1]; Homo sapiens, ∆K280 tauRD-DsRed SH-SY5Y cells, read-out: Extrapolated EC50 in inhibiting ∆K280 tauRD aggregation (DsRed fluorescence)) is reported as 10 µM, the “Concentration significantly elevating DsRed fluorescence intensity” value ([1]; day 8) is reported as 5 to 10 µM and the “CRE-motif-driven GFP expression” value [2] is reported as “significantly activated”. For the same compound, the “ROS level elevated by ∆K280 tauRD overexpression” value [3] was “effectively reduced” and the EC50 [4] was 10 µM.
